Experimental data as given in patent US9370503B1, “Compounds for treating ocular diseases” (priority 2015, dated 2016).

How the values were obtained:
[1] = tested on: Ocular Hypertensive Rabbit; assay: Ocular blood flow in ocular hypertensive rabbit (colored microspheres); assay type: in vivo; conditions: 1% topical instillation, 30 minutes after drug instillation
Protocol: 0.5% alcaine was purchased commercially. A 20% sterilized hypertonic saline solution was prepared in the laboratory. Colored microspheres were purchased from E-Z Trac (Los Angeles, Calif.). The colored microspheres were diluted with saline containing 0.01% (v/v) of Tween 80 to prevent the microspheres from sticking together. Two million microspheres in 0.4 ml were injected at each time point.
Female New Zealand white rabbits weighing 2.-3.0 kg, were purchased commercially. Animal care and treatment were followed by the institutional guidelines.
Rabbits were anesthetized with 35 mg/kg ketamine and 5 mg/kg xylazine by intramuscular injection. Half of the initial dose was given every one hour thereafter. The left ventricle was cannulated through the right carotid artery for injection of colored microspheres and the femoral artery was cannulated for collection of blood samples. The left eye was treated with one drop of proparacaine hydrochloride ophthalmic solution (Bausch & Lomb, Inc., Tampa, Fla., USA). The needle was inserted directly into the anterior chamber of the left eye, which was connected to the 40 mmHg saline manometer. The ocular hypertensive model reduced the ocular blood flow to approximately one third of the normal valued. 50 μl of 10 g/l flavone or vehicle (30% HP-β-CD solution) was instilled topically to the left eye 30 minutes after the ocular hypertensive model was built. The ocular blood flow was measured by colored microspheres at 0, 30, 60 and 120 minutes after treatment with the compounds or vehicle. At each time point, 2 million microspheres were injected as a reference, and blood samples were taken from the femoral artery for exactly one minute following injection of the microspheres. The blood sample was collected in a heparinized tube and the volume was recorded. The rabbits were euthanized with an injection of 100 mg/kg pentobarbital sodium after the last blood sampling. The left eyes were enucleated and dissected into the iris, ciliary body, retina and choroid. All the tissues were weighed.
The details of sample processing and microsphere counting were provided by E-Z Trac (Los Angeles, Calif., USA). In brief, the blood hemolysis reagent was added to the microfuge tubes with the blood sample, then vortexed and centrifuged for 30 minutes at 6000 rpm. The supernatant was removed, and then tissue/blood digest reagents I and II were added. The tubes were capped, vortexed, and centrifuged for 30 minutes. […] The number of microspheres was counted by the hemocytometer under the microscope. […] The protocol thereafter was the same as that used to process the blood samples, and the microspheres were counted.
The blood flow of each tissue at a certain time point was calculated according to the following formula: Qm=(Cm×Qr)/Cr. […]

[2] = tested on: rat's retinal function after ischemic insult; assay: b-wave recovery of retinal function after ischemic insult (ERG); assay type: in vivo; conditions: 1% instilled topically
Protocol: The retinal ischemia experiment has been described previously (Chiou et al., J. Ocular Pharmacol. 9:179-185, 1993, and Chiou et al., J. Ocular Pharmacol. 10:493-498, 1994). Electroretinograms (ERG) were carried out to assess the retinal function prior to and after the ischemic insult. ERGs were recorded using Ag/AgCl electrodes placed in contact with the cornea. One stainless steel needle was inserted subcutaneously between the two eyes as a reference electrode, and another needle was inserted subcutaneously into the neck as a ground electrode. A photostimulator (Grass PS22 Flash) was used to produce flashes of light 5 inches from the eye, and the ERG potentials were recorded on a polygraph. The ERG system was purchased from LKC Technologies, Inc. (Gaithersburg, Md.). A single flash (10 msec) of white light stimuli was used to evoke ERG a- and b-waves. Peak b-wave amplitudes were measured from the trough of the a-wave to the peak of the b-wave.
Long-Evans rats (200-250 g), dark-adapted at least 2 hours, were anaesthetized intramuscularly with ketamine (35 mg/kg) plus xylazine (5 mg/kg). Half of the initial dose was administrated at one hour intervals to maintain adequate anesthesia. The pupils were dilated with 1% tropicamide (50 μl) for ERG experiments. Retinal ischemia was produced by occlusion of the central retina and posterior ciliary arteries using a ligature placed around the optic nerve and posterior ciliary artery. The ligature was drawn tightly through a micropipette tip placed at the base of the eyeball socket to occlude the retinal vessels for 30 min. After 30 min of retinal ischemia, the ligature was liberated and the retinal arteries allowed to reperfuse. ERGs were measured at 30, 60, 90, 120, 180 and 240 min thereafter. The compounds and vehicle were administered topically before occlusion of the central retinal arteries.

CC(C)=CCC/C(C)=C/Cc1c(O)cc2c(c1O)C(=O)C[C@@H](c1ccc(O)c(O)c1)O2 [Formula (I)]
blood flow in choroid [1]: significantly increased | blood flow in iris [1]: significantly increased | b-wave amplitude recovery, of the original level ([2]; after 30 min retinal ischemia and reperfusion): approximately 50% | duration of drug action on b-wave recovery ([2]; after drug application): at least 240 min
